This is an account of results in ChEMBL document CHEMBL1201862, “PubChem BioAssay data set” (2004).

“And” between values parts separate entries of the source, which are not always exact repeats. Identical values can stand only once.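 Following 48 hours of exposure in 96-well plates, responses at five concentrations were used to interpolate endpoints linearly. At the GI50, growth is halved.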 The source made the active and inactive calls. No stated cut-off is given here; in the data, active = GI50 up to about 1.1 µM and inactive = higher. A value given as a limit tells only on which side of the number the result lay.

Test systems include COLO 205; HCT-15; HOP-62; Hs-578T; MDA-MB-435; MOLT-4; Malme-3M; NCI-H226; NCI-H23; OVCAR-3; OVCAR-5; PC-3; RPMI-8226; SF-268; SK-MEL-2; SW-620; U-251; UO-31; HL-60.
Common to all, as to experiment: NCI anticancer screen, dose series, 48 h

For the compound `CC(C)CCNC(=O)c1ccc(CNC(=O)/C=C/c2csc(-c3ccccc3)n2)cc1`, the GI50 was > 100 µM (inactive) in the assay with COLO 205; 95.5 µM with HCT-15; 17.9 µM (inactive) in the assay with HOP-62; 32.6 µM (inactive) in the assay on Hs-578T; > 100 µM (inactive) in the assay on MDA-MB-435; > 100 µM (inactive) in the assay on MOLT-4. The GI50 with Malme-3M is 29.9 µM (inactive); in the assay on NCI-H226 it was 33.3 µM (inactive); in the assay on NCI-H23, > 100 µM (inactive); in the assay on OVCAR-3, > 100 µM (inactive); in the assay with OVCAR-5, > 100 µM (inactive); in the assay on PC-3, > 100 µM (inactive). For the same compound, the GI50 with RPMI-8226 was > 100 µM (inactive); with SF-268 it was 35.4 µM (inactive); in the assay on SK-MEL-2, > 100 µM (inactive); in the assay on SW-620, > 100 µM (inactive); in the assay on U-251 it was 29.4 µM (inactive); with UO-31, 19.6 µM (inactive).
Turning to `C[n+]1c(-c2ccccc2)cc2/c(=C\c3ccc([N+](=O)[O-])cc3)c3ccccc3n21`, the GI50 is 0.532 µM (active) in the assay with COLO 205; 14.3 µM in the assay on HCT-15; 0.764 µM (active) in the assay on HL-60; 4.84 µM (inactive) in the assay with HOP-62; 1.29 µM (inactive) in the assay on Hs-578T; 2.54 µM (inactive) in the assay with MDA-MB-435. Moreover, the GI50 in the assay on MOLT-4 was 0.966 µM (active); in the assay with NCI-H226, 2.65 µM (inactive); in the assay on NCI-H23, 2.51 µM (inactive); in the assay on OVCAR-3, 3.06 µM (inactive); in the assay on OVCAR-5, 6.85 µM (inactive); in the assay with PC-3, 3.1 µM (inactive). Moreover, the GI50 in the assay on SF-268 is 3.47 µM (inactive); with SK-MEL-2, 3.01 µM (inactive); with SW-620, 1.79 µM (inactive); in the assay on U-251 it was 1.43 µM (inactive); in the assay on UO-31, 6.05 µM (inactive).
Take `CCOc1ccc(N/C(=C(/C(Cl)=C(/Cl)NCCN)[N+](=O)[O-])n2nnc3ccccc32)cc1`: the GI50 was 15.6 µM (inactive) with COLO 205; 17.9 µM in the assay on HCT-15; 90.8 µM (inactive) in the assay on HOP-62; 27.5 µM (inactive) with Hs-578T; 44.3 µM (inactive) with MDA-MB-435; 16.5 µM (inactive) with MOLT-4. For the same compound, the GI50 was 14.5 µM (inactive) with Malme-3M; 86.1 µM (inactive) with NCI-H226; 32.5 µM (inactive) in the assay on NCI-H23; 13 µM (inactive) in the assay on OVCAR-3; 67.3 µM (inactive) in the assay on OVCAR-5; 28.8 µM (inactive) in the assay with PC-3. Moreover, the GI50 with RPMI-8226 is 30.9 µM (inactive); in the assay on SF-268, 13.6 µM (inactive); with SK-MEL-2 it was > 100 µM (inactive); in the assay on SW-620, 6.79 µM (inactive); in the assay on U-251, 35.8 µM (inactive); in the assay with UO-31, 37.9 µM (inactive).
Take `Fc1ccc(C(OCCN2CCC3CCC(C2)N3C/C=C/c2cccs2)c2ccc(F)cc2)cc1` (centres undefined): the GI50 in the assay with COLO 205 is 1.96 µM (inactive); in the assay with HCT-15 it was 4.06 µM; in the assay on HOP-62, 13.6 µM (inactive); in the assay with Hs-578T, 12.1 µM (inactive); in the assay with MDA-MB-435 it was 6.98 µM (inactive); in the assay on MOLT-4 it was 1.21 µM (inactive). Also, the GI50 with Malme-3M was 6.03 µM (inactive); with NCI-H226, 7.19 µM (inactive); in the assay with NCI-H23, 8.34 µM (inactive); in the assay on OVCAR-3 it was 10.6 µM (inactive); in the assay on OVCAR-5, 13.1 µM (inactive); in the assay with PC-3 it was 5.75 µM (inactive). Also, the GI50 is 0.0133 µM (active) in the assay on RPMI-8226; 12.2 µM (inactive) with SF-268; 10.7 µM (inactive) in the assay on SK-MEL-2; 5.98 µM (inactive) in the assay on SW-620; 5.64 µM (inactive) in the assay with U-251; 12 µM (inactive) in the assay with UO-31.
For `c1ccc(CCN2CCN=C2Cc2ccccc2)cc1`, the GI50 was > 100 µM (inactive) in the assay with COLO 205; greater than 100 µM in the assay with HCT-15; > 100 µM (inactive) with HL-60; > 100 µM (inactive) in the assay with HOP-62; > 100 µM (inactive) in the assay with Hs-578T; > 100 µM (inactive) in the assay on Malme-3M. Moreover, the GI50 is > 100 µM (inactive) in the assay with NCI-H226; > 100 µM (inactive) in the assay with NCI-H23; 71.3 µM (inactive) with OVCAR-3; > 100 µM (inactive) in the assay with OVCAR-5; 29 µM (inactive) in the assay on RPMI-8226; > 100 µM (inactive) in the assay with SF-268. Also, the GI50 in the assay with SK-MEL-2 was > 100 µM (inactive); in the assay with SW-620, > 100 µM (inactive); in the assay on U-251, > 100 µM (inactive); with UO-31, 99.1 µM (inactive).
`CC(=O)OCC1OC(n2c(N)c(C#N)c(C)c(C#N)c2=S)C(OC(C)=O)C(OC(C)=O)C1OC(C)=O` (centres undefined): the GI50 in the assay with COLO 205 was > 100 µM (inactive); with HCT-15 it was greater than 100 µM; with HOP-62, > 100 µM (inactive); with Hs-578T, > 100 µM (inactive); with MDA-MB-435 it was > 100 µM (inactive); in the assay with MOLT-4, > 100 µM (inactive). Moreover, the GI50 is > 100 µM (inactive) and 78.5 µM (inactive) in the assay on Malme-3M; > 100 µM (inactive) with NCI-H226; > 100 µM (inactive) with NCI-H23; > 100 µM (inactive) with OVCAR-3; > 100 µM (inactive) in the assay with OVCAR-5; > 100 µM (inactive) in the assay with PC-3. The GI50 with RPMI-8226, with SF-268, in the assay with SK-MEL-2, in the assay on SW-620, in the assay on U-251 and with UO-31 was > 100 µM (inactive) in each case.
As to `COc1ccccc1/N=N/C(=N\NC(=O)c1ccc(C)cc1)c1ccc(N(CCC#N)CCC#N)cc1C`, the GI50 with COLO 205 was 15.7 µM (inactive); in the assay with HCT-15 it was 41.4 µM; in the assay with HOP-62 it was 50.9 µM (inactive); with Hs-578T, 39.3 µM (inactive); in the assay on MDA-MB-435, 39.5 µM (inactive); with MOLT-4, 35.2 µM (inactive). The GI50 is 25.4 µM (inactive) in the assay with Malme-3M; 2.19 µM (inactive) in the assay on NCI-H226; 28.2 µM (inactive) in the assay on NCI-H23; 18.7 µM (inactive) with OVCAR-3; > 100 µM (inactive) with OVCAR-5; 35 µM (inactive) in the assay on PC-3. For the same compound, the GI50 is 40.4 µM (inactive) in the assay on RPMI-8226; 38.1 µM (inactive) with SF-268; 36.4 µM (inactive) in the assay with SK-MEL-2; 47.5 µM (inactive) in the assay with SW-620; 43.9 µM (inactive) in the assay with U-251; 61.9 µM (inactive) in the assay with UO-31.
Take `C/C(=N\Nc1nc2ccccc2n1C)c1cnccn1`: the GI50 in the assay with COLO 205 was < 0.0139 µM (active); in the assay with HCT-15, 0.0438 µM; in the assay with HL-60, 0.0178 µM (active); in the assay on HOP-62, 0.537 µM (active); in the assay with MDA-MB-435, 0.55 µM (active); in the assay on MOLT-4 it was < 0.0261 µM (active). Besides, the GI50 was 0.065 µM (active) in the assay with Malme-3M; 0.256 µM (active) in the assay on NCI-H226; 0.105 µM (active) in the assay with NCI-H23; 0.0326 µM (active) in the assay with OVCAR-3; 0.0426 µM (active) in the assay on PC-3; < 0.0297 µM (active) with RPMI-8226. For the same compound, the GI50 in the assay with SF-268 was 0.0726 µM (active); in the assay on SK-MEL-2 it was 0.839 µM (active); with SW-620, 0.0418 µM (active); with U-251, 0.339 µM (active); with UO-31, 0.0407 µM (active).
Take `CC(C)N1C=[N+](C(C)C)CC1`: the GI50 with COLO 205 is > 100 µM (inactive); in the assay with HCT-15 it was greater than 100 µM; in the assay on HOP-62 it was > 100 µM (inactive); in the assay on Hs-578T, > 100 µM (inactive); in the assay with MDA-MB-435, > 100 µM (inactive); with Malme-3M, > 100 µM (inactive). In addition, the GI50 with NCI-H226, in the assay on NCI-H23, in the assay with OVCAR-3, in the assay on OVCAR-5, in the assay with PC-3 and in the assay on RPMI-8226 was > 100 µM (inactive) throughout. Further, the GI50 in the assay on SF-268, with SK-MEL-2, in the assay with SW-620, in the assay on U-251 and in the assay on UO-31 was > 100 µM (inactive) throughout.
Consider `C=CCN1C(=O)N/C(=C\c2ccc(Cl)cc2)C1=O`, for which the GI50 in the assay on COLO 205 was > 100 µM (inactive); in the assay on HCT-15 it was greater than 100 µM; in the assay with HL-60, > 100 µM (inactive); in the assay with HOP-62 it was > 100 µM (inactive); with Hs-578T, > 100 µM (inactive); with MDA-MB-435, > 100 µM (inactive). For the same compound, the GI50 with MOLT-4, in the assay with Malme-3M, with NCI-H226, in the assay on NCI-H23, in the assay with OVCAR-3 and in the assay on OVCAR-5 was > 100 µM (inactive) throughout. Further, the GI50 with RPMI-8226, in the assay on SF-268, in the assay with SW-620 and with U-251 was > 100 µM (inactive) throughout.
With `CCOc1ccc(/C=N/[N+](C)(C)C)cc1OCC`, the GI50 with COLO 205 is > 10 µM (inactive); with HCT-15 it was greater than 10 µM; in the assay on HOP-62, > 10 µM (inactive); in the assay on Hs-578T, > 10 µM (inactive); in the assay on MDA-MB-435, > 10 µM (inactive); with MOLT-4, > 10 µM (inactive). For the same compound, the GI50 in the assay with Malme-3M, in the assay on NCI-H23, in the assay on OVCAR-3, in the assay on OVCAR-5, in the assay with PC-3 and in the assay with RPMI-8226 was > 10 µM (inactive) throughout. For the same compound, the GI50 with SF-268, with SW-620 and in the assay on U-251 was > 10 µM (inactive) in each case.
With `O=C(CSCC(=O)N/N=C\c1ccccc1F)N/N=C\c1ccccc1F`, the GI50 is > 100 µM (inactive) with COLO 205; 63.2 µM in the assay on HCT-15; > 100 µM (inactive) in the assay with HL-60; > 100 µM (inactive) in the assay on Hs-578T; 68.5 µM (inactive) with MDA-MB-435; 63.2 µM (inactive) in the assay on MOLT-4. Besides, the GI50 in the assay with Malme-3M is > 100 µM (inactive); in the assay with NCI-H226, 87.5 µM (inactive); with NCI-H23, > 100 µM (inactive); with OVCAR-3 it was 27 µM (inactive); with RPMI-8226, 36.3 µM (inactive); in the assay with SF-268, > 100 µM (inactive). The GI50 in the assay on SK-MEL-2 is > 100 µM (inactive); in the assay on SW-620, > 100 µM (inactive); with U-251, 67.3 µM (inactive); in the assay on UO-31, > 100 µM (inactive).
